Assay results published in patent publication US6949536B2, “Sulfonylbenzene compounds as anti-inflammatory/analgesic agents” (Pfizer, Inc., priority 1998, dated 2005).
Structures can show the parent of a compound that is named as a salt.

Row | melting point | SMILES
1 | 140 to 142 °C | NS(=O)(=O)c1ccc(-n2nc(C(F)(F)F)cc2-c2ccc(-c3cscn3)c(C(F)(F)F)c2)cc1F [Example 176, 2-Fluoro-4-[5-[4-(1,3-thiazol-4-yl)-3-(trifluoromethyl)phenyl]-3-(trifluoromethyl)-1H-pyrazol-1-yl]benzenesulfonamide]
2 | 122.9 °C | Cc1cc(-c2cc(C(F)F)nn2-c2ccc(S(C)(=O)=O)c(F)c2)ccc1-c1cscn1 [Example 194, 4-[4-[3-(Difluoromethyl)-1-[3-Fluoro-4-(methylsulfonyl)phenyl]-1H-pyrazol-5-yl]-2-methylphenyl]-1,3-thiazole]
3 | 159 to 160 °C | CS(=O)(=O)c1ccc(-n2nc(C(F)(F)F)cc2-c2ccc(-c3ccco3)cc2)cc1C(F)(F)F (as salt: hydrochloride) [Example 135, 5-[4-(2-Furyl)phenyl]-1-[4-(methylsulfonyl)-3-(trifluoromethyl)phenyl]-3-trifluoromethyl-1H-pyrazole]
4 | 125 to 127 °C | Cc1cc(-c2cc(C(F)(F)F)nn2-c2ccc(S(N)(=O)=O)c(F)c2)ccc1-c1cscn1 (as salt: hydrochloride) [Example 113, 2-Fluoro-4-[5-[3-methyl-4-(1,3-thiazol-4-yl)phenyl]-3-(trifluoromethyl)-1H-pyrazol-1-yl]benzenesulfonamide]
5 | 167 to 168 °C | CN(C)C(=O)c1cc(-c2ccc(-c3ccco3)cc2)n(-c2ccc(S(C)(=O)=O)c(F)c2)n1 (as salt: hydrochloride) [Example 133, N,N-Dimethyl-1-[3-fluoro-4-(methylsulfonyl)phenyl]-5-[4-(2-furyl)phenyl]-1H-pyrazole-3-carboxamide]
6 | 133 to 135 °C | Cc1cc(-c2ccc(S(C)(=O)=O)cc2)n(-c2ccc(-c3ccco3)cc2)c1 [Example 58, 1-[4-(2-Furyl)phenyl]-4-methyl-2-[4-(methylsulfonyl)phenyl]-1H-pyrrole]
7 | 190 to 191 °C | Cc1ccc(-c2ccc(S(C)(=O)=O)cc2)n1-c1ccc(-c2nccs2)cc1 [Example 49, 2-Methyl-5-[4-(methylsulfonyl)phenyl]-1-[4-(2-thiazolyl)phenyl]-1H-pyrrole]
8 | 112 to 114 °C | Cc1cc(-c2cc(C(F)(F)F)nn2-c2ccc(S(C)(=O)=O)c(F)c2)ccc1-c1cscn1 [Example 106, 4-{4-[1-[3-Fluoro-4-(methylsulfonyl)phenyl]-3-(trifluoromethyl)-1H-pyrazol-5-yl]-2-methylphenyl}-1,3-thiazole]
9 | 225.2 °C | CC(=O)Nc1cnn(-c2ccc(S(C)(=O)=O)c(F)c2)c1-c1ccc(-c2cscn2)cc1 [Example 164, N-[1-[3-Fluoro-4-(methylsulfonyl)phenyl]-5-[4-(1,3-thiazol-4-yl)phenyl]-1H-pyrazol-4-yl]acetamide]
10 | 155 to 156 °C | CS(=O)(=O)c1ccc(-n2nccc2-c2ccc(-c3ccco3)cc2)cc1F [Example 162, 1-[3-Fluoro-4-(methylsulfonyl)phenyl]-5-[4-(2-furyl)phenyl]-1H-pyrazole]
